Results as given in ChEMBL document CHEMBL1139557, “Synthesis and relative bioavailability of meptazinol benzoyl esters as prodrugs” (Bioorg Med Chem Lett, 2005).

Key:
Mus musculus [1] = test: Analgesic activity against mice in acetylcholine induced mice writhing test when dosed at 50 umol/kg (ig) administration after 40 min; assay type: functional
[2] = (§1) Bioavailability in rat; assay type: ADME, organism-based; conditions: in vivo
[3] = as §1; assay type: ADME, organism-based; conditions: in vivo; remark: listed apart in the source
[4] = as §1; assay type: ADME, organism-based; conditions: in vivo; remark: listed apart in the source
[5] = as §1; assay type: ADME, organism-based; conditions: in vivo; remark: listed apart in the source
Mus musculus [6] = test: Analgesic activity against mice in acetylcholine induced mice writhing test when dosed at 50 umol/kg (ig) administration after 80 min; assay type: functional
[7] = as §1; assay type: ADME, organism-based; conditions: in vivo; remark: listed apart in the source
[8] = as §1; assay type: ADME, organism-based; conditions: in vivo; remark: listed apart in the source
Mus musculus [9] = test: Analgesic activity against mice in hot plate test when dosed at 100 umol/kg intraperitoneally; assay type: functional
Mus musculus [10] = test: Analgesic activity in hot plate test when dosed at 100 umol/kg intraperitoneally; assay type: functional
[11] = Relative bioavailability in stomach closed loop study in rats; Mean of 4 exp; assay type: ADME, organism-based; conditions: rat, in vivo; read-out: Relative Bioavailability
[12] = Relative bioavailability in jejunum closed loop study in rats; Mean of 4 exp; assay type: ADME, organism-based; conditions: rat, in vivo, other

Structure (SMILES): CCC1(c2cccc(OC(=O)c3ccccc3N)c2)CCCCN(C)C1 (stereo unspecified)
- Activity (Mus musculus [1]): 1
- bioavailability [2]: 81.9%
- bioavailability [3]: 59.8%
- bioavailability [4]: 80.4%
- bioavailability [5]: 101%
- Activity (Mus musculus [6]): 0
- F [7]: 183.64%
- bioavailability [8]: 107%
- Activity (Mus musculus [9]): 3

Structure (SMILES): CCC1(c2cccc(OC(=O)c3ccccc3)c2)CCCCN(C)C1 (stereo unspecified)
- Activity (Mus musculus [1]): 2
- bioavailability [2]: 81.6%
- Activity (Mus musculus [10]): 4
- bioavailability [3]: 75.4%
- bioavailability [4]: 133%
- bioavailability [5]: 58.1%
- Activity (Mus musculus [6]): 2
- bioavailability [7]: 53.9%
- bioavailability [8]: 112%

Structure (SMILES): CCC1(c2cccc(OC(=O)c3c(C)cccc3N)c2)CCCCN(C)C1.Cl (stereo unspecified)
- bioavailability [11]: 65.4%
- Relative Bioavailability [12]: 562.72%

Structure (SMILES): CCC1(c2cccc(OC(=O)c3c(C)cccc3N)c2)CCCCN(C)C1 (stereo unspecified)
- F [2]: 167.97%
- bioavailability [3]: 130%
- bioavailability [4]: 149%
- F [5]: 174.27%
- bioavailability [7]: 120%
- bioavailability [8]: 136%
